The test system of one data set is Typhlodromus pyri. Put plainly: LR50; higher = less toxic. The note with it: not reported; mortality.
A further data set deals with Colinus virginianus. The note with it: acute; oral; mortality.
The test system of a further data set is Lepomis macrochirus. The note with it: acute; duration: 96 hours; mortality.
The subject of another data set is Mus musculus. The note with it: acute; oral; mortality.
A further data set concerns Tagia sp. The note with it: chronic/long-term; reproduction.
The subject of a further data set is Hypoaspis aculeifer. The note with it: chronic/long-term; duration: 14 days; reproduction.
The next data set deals with Daphnia magna. To be noted: chronic/long-term; duration: 21 days; reproduction.
The next data set concerns Canidae. The note with it: oral, Dog Other, body weight.
For a further data set, the system named is Apis mellifera. To be noted: acute, duration: 48 hours, mortality.
Another data set has as its system Oncorhynchus mykiss. The note with it: chronic/long-term; duration: 87 days; growth.

Structures are written as SMILES. Converted amounts (≈) assume the structure as drawn. Bounds are passed on as bounds.

As to `COc1ccc(-c2ccccc2)cc1NNC(=O)OC(C)C` [Bifenazate], in the data set on Typhlodromus pyri, the LR50 was found to be 23.8 g/ha. The LD50 with Colinus virginianus is 1040 mg/kg-day; in the data set with Rattus norvegicus (acute, oral, mortality) it was > 5000 mg/kg-day; with Mus musculus, > 5000 mg/kg-day; with Apis mellifera (dermal) it was 8.5 µg/piece; with Apis mellifera (oral, unspecified), > 100 µg/piece; in the data set on Anas platyrhynchos (short-term, oral, feed, mortality), 106 mg/kg-day. The LC50 (usually the concentration lethal to half of the exposed cells or organisms) with Lepomis macrochirus was found to be 0.58 mg/L (≈ 1.93 µM). For the same molecule, the NOAEL (usually the highest tested level that showed no adverse finding) is 1 mg/kg-day in the data set on Rattus norvegicus (chronic, duration: 2 years, hematological); 10 mg/kg-day with Rattus norvegicus (reproduction developmental, body weight); 1.5 mg/kg-day in the data set with Rattus norvegicus (reproduction developmental, food consumption); 1 mg/kg-day with Canidae (chronic, duration: 1 years); 1 mg/kg-day in the data set on Canidae (subchronic, duration: 90 days). The NOEC with Tagia sp. was 9.75 mg/kg; in the data set on Hypoaspis aculeifer, 6.56 mg/kg; in the data set with Daphnia magna it was 0.15 mg/L; in the data set on Oncorhynchus mykiss, 0.017 mg/L. The NOEL with Anas platyrhynchos (reproductive, duration: 23 weeks, F) was found to be 2.3 mg/kg-day.
